# US20230286956A1 (DUKSUNG WOMEN'S UNIVERSITY INDUSTRY-ACADEMIC COOPERATION …, priority 2020, published 2023)
# Columns and labels:
# [1] = test system: wild-type red mold strain GZ3639; test: Inhibition of spore germination / reactive oxygen species generation through NOX enzyme inhibition in red mold; assay type: cell-based; conditions: 24 h, read-out: IC50 (µM), compound concentration at which the spore germination inhibition rate was 50%
# Experimental: When NADPH oxidase (NOX), which is involved in the generation of reactive oxygen species in red mold, is inhibited, normal mycelial growth is inhibited, abnormal form of monocyclic conidia is formed, and germination is inhibited. The abnormal phenotype caused by the reduction of reactive oxygen species in red mold can be easily observed under an optical microscope. Through this, the ability to inhibit generation of reactive oxygen species through NOX inhibition was evaluated.
# Specifically, for the evaluation of compound activity, 0.1 mM of the compound was added to a minimum medium (MM20) spore suspension diluted to ⅕. Spores ([…]) of wild-type red mold strain GZ3639 were inoculated into the medium and cultured at 25° C. for 24 h, followed by microscopic observation. Compounds having a germination inhibition rate and microcycle conidiation to be 50% or more of those in normal germination were selected, and their activities were evaluated at concentrations of 50 µM, 25 µM, and 10 µM. At this time, the activity of substances having a germination inhibition rate of 95% at 10 µM was further evaluated at concentrations of 5 µM, 1 µM, 0.5 µM, and 0.1 µM. Based on the result of this evaluation, the compound concentration (inhibitory concentration 50%, IC50) at which the spore germination inhibition rate was 50% was determined.
# in vivo = test: in vivo; parameters: species or system SD rats; conditions: SD, rat, po
# Experimental: The bioavailability (BA) and pharmacokinetic properties of the compounds of the present invention were evaluated in an animal model. The compounds were administered to 8-week-old SD rats (300 to 350 g) at a dose of 2 to 5 mg/kg through oral and intravenous administration routes. After administration, blood was collected at regular time intervals and the time course of blood concentration was analyzed.
# MPTP-administered mice = test: Behavioral activity: beam test and challenge beam test in MPTP mice; assay type: in vivo; conditions: intraperitoneal 5 mg/kg
# Experimental: In order to evaluate the behavioral activation by the compounds of the present invention, Compounds lace (Compound 27), 1ahe (Compound 44), and 1abv (Compound 22) were each intraperitoneally administered at a dose of 5 mg/kg for 1 week, then MPTP (15 mg/kg x 4 times) was injected. These compounds were additionally administered for 1 week. A beam test and a challenge beam test were conducted 1 day before and 2 days after MPTP administration, respectively. The results are illustrated in FIG. 12.
# In order to evaluate the behavioral activation by the compounds of the present invention, Compounds 1ajs (Compound 63), 1ajy (Compound 67), and 1abw (Compound 23) were each intraperitoneally administered at a dose of 5 mg/kg for 1 week, then MPTP (15 mg/kg x 4 times) was injected. These compounds were additionally administered for 1 week. A beam test and a challenge beam test were conducted 2 days after MPTP administration. The results are illustrated in FIG. 13.
# [2] = Single acute toxicity evaluation 2 (2000 mg/kg oral); assay type: in vivo, ICR mice
# Experimental: Acute toxicity properties after single administration of the compounds of the present invention were evaluated in an animal model.
# [3] = test system: substantia nigra dopaminergic neurons; test: Inhibition of dopaminergic nerve cell death in MPTP animal model of Parkinson's disease (tyrosine hydroxylase immunostaining); assay type: in vivo, C57B16/J mice; conditions: for survival rate of dopaminergic neurons, of that in the control group: 1 week before and after MPTP
# Experimental: The dopaminergic neuronal cell protecting effect of the compound of the present invention was evaluated in an animal model of Parkinson’s disease. The animal model used was 7-week-old C57B16/J mice (23 to 25 g), to which MPTP (15 mg/kg) was administered 4 times at 1.5 hour intervals. For 1 to 2 days after administration, behavior was noticeably slowed and gradually recovered. In 1 week after MPTP administration, behavior was almost normalized to a level similar to that of normal mice.
# In order to evaluate the efficacy of the compounds of the present invention, Compounds 1aaa (Compound 1), lace (Compound 27), 1ahe (Compound 44) and 1aje (Compound 62) were each administered at a dose of 5 mg/kg for 1 week, then MPTP (15 mg/kg x 4 times) was injected. These compounds were additionally administered for 1 week, and then dopamine innervation in the substantia nigra region was analyzed through immunostaining.
# Specifically, selegiline, 1aaa, lace, 1ahe, 1aje, and apocynin were administered at a dose of 5 mg/kg for 7 days, then MPTP (15 mg/kg x 4 times) was administered to induce damage to dopaminergic neurons. After 7 days of additional administration of the compounds at the same dose, the animals were sacrificed. Immunostaining was performed using tyrosine hydroxylase antibody to measure the survival rate of substantia nigra dopaminergic neurons. After immunostaining, the number of surviving dopaminergic neurons was analyzed. The results are illustrated in FIG. 8.
# In order to evaluate the efficacy of the compounds of the present invention, Compounds 1abv (Compound 22), 1abw (Compound 23), and 1ahs (Compound 52) were each intraperitoneally administered at a dose of 5 mg/kg for 1 week or orally administered at a dose of 50 mg/kg, then MPTP (15 mg/kg x 4 times) was injected. These compounds were additionally administered for 1 week, and then dopamine innervation in the substantia nigra region was analyzed through immunostaining. The results are illustrated in FIG. 9.
# (§1) In order to evaluate the dopaminergic neuroprotective effect of the compounds of the present invention, Compounds 1aja (Compound 59) and 1abk (Compound 17) were each intraperitoneally administered at a dose of 5 mg/kg for 1 week, then MPTP (15 mg/kg x 4 times) was injected. These compounds were additionally administered for 1 week. After immunostaining using brain slices from each group, surviving dopaminergic neurons were photographed under a microscope and analyzed. The results are illustrated in FIG. 10.
# as §1, with “1ajs” for “1aja”, “63), 1ajy (Compound 67),” for “59)”, “1aqj” for “1abk”, “85)” for “17)”, “11.” for “10.”
# SH-SY5Y cell line = test: Cell viability (MTT assay) after MPP+ or rotenone; assay type: cell-based; conditions: 0.5 µM compound, then MPP+ (2 mM) or rotenone (2 µM) for 24 hours
# Experimental: Specifically, the SH-SY5Y cell line was treated with 0.5 µM of Compound 1aaa (Compound 1), 1aca (Compound 24), lace (Compound 27), 1ahe (Compound 44) or 1aje (Compound 62) and then with MPP+ (2 mM) or rotenone (2 µM) for 24 hours. Cell viability in the case of being treated with each compound is illustrated in FIGS. 4 and 5.
# [4] = Evaluation 1: beam test and challenge beam test
# [5] = Evaluation 2: intraperitoneal 5 mg/kg or oral 50 mg/kg
# [6] = Evaluation 2: beam test, 2 days after MPTP
smiles,measurement,setting,value
"CN1C(=[Se])N(c2ccccc2)C(=O)/C1=C\c1ccc(O)cc1O [Compound 1, 5-(2,4-dihydroxybenzylidene)-1-methyl-3-phenyl-2-selenoxoimidazolidine-4-on]",IC50,[1],20 µM
same,bioavailability,in vivo,13%
Cc1ccc(N2C(=O)C(=Cc3ccc(NCCOCCO)cc3)N(C)C2=[Se])cc1 [Compound 1abv],reduction of time for mice to reach the home cage compared to MPTP administration group,MPTP-administered mice; [4],≥ 50%
same,change in body weight,[2]; day 0,100
same,change in body weight,[2]; day 2,99.0
same,change in body weight,[2]; day 4,100.0
same,change in body weight,[2]; day 8,102.5
same,change in body weight,[2]; day 10,103.4
same,change in body weight,[2]; day 14,105.0
same,"survival rate of dopaminergic neurons, of that in the control group",[3]; [5],67.8%
Cc1ccc(N2C(=O)C(=Cc3ccc(NCCN4CCOCC4)cc3)N(C)C2=[Se])cc1 [Compound 1abw],reduction of time for mice to reach the home cage compared to MPTP administration group,MPTP-administered mice; [6],about 50%
same,"survival rate of dopaminergic neurons, of that in the control group",[3]; [5],72.3%
CCc1ccc(N2C(=O)C(=Cc3ccc(O)cc3O)N(C)C2=[Se])cc1 [Compound 1aca],cell viability / inhibition of cell death,SH-SY5Y cell line,significantly inhibit cell death
CN1C(=[Se])N(CCc2ccccc2)C(=O)C1=Cc1cc(O)cc(O)c1 [Compound 1ahe],change in body weight,[2]; day 0,100
same,change in body weight,[2]; day 2,98.6
same,change in body weight,[2]; day 4,100.9
same,change in body weight,[2]; day 8,104.2
same,change in body weight,[2]; day 10,105.5
same,change in body weight,[2]; day 14,106.0
same,cell viability / inhibition of cell death,SH-SY5Y cell line,significantly inhibit cell death
CCCCCCN1C(=O)C(=Cc2cc(O)cc(O)c2)N(C)C1=[Se] [Compound 1aje],cell viability / inhibition of cell death,SH-SY5Y cell line,significantly inhibit cell death
CCCCCCN1C(=O)C(=Cc2ccc(N3CCOCC3)cc2)N(C)C1=[Se] [Compound 1ajs],reduction of time for mice to reach the home cage compared to MPTP administration group,MPTP-administered mice; [6],about 50%
same,change in body weight,[2]; day 0,100
same,change in body weight,[2]; day 2,94.3
same,change in body weight,[2]; day 4,91.9
same,change in body weight,[2]; day 8,96.7
same,change in body weight,[2]; day 10,101.6
same,change in body weight,[2]; day 14,99.4
CCCCCCN1C(=O)C(=Cc2ccc(NCCOCCF)cc2)N(C)C1=[Se] [Compound 1ajy],reduction of time for mice to reach the home cage compared to MPTP administration group,MPTP-administered mice; [6],about 50%
same,"survival rate of dopaminergic neurons, of that in the control group",[3]; Evaluations 3 and 4: intraperitoneal 5 mg/kg,50.6%
"Cc1ccc(N2C(=O)/C(=C\c3ccc(N4CCCCC4)cc3)N(C)C2=[Se])cc1 [Compound 15, 1-methyl-5-(4-piperidine-1-yl)benzylidene-3-(4-tolyl)-2-selenoxoimidazolidine-4-on]",IC50,[1],11 µM
same,bioavailability,in vivo,11%
"Cc1ccc(N2C(=O)/C(=C\c3ccc(NCCOCCO)cc3)N(C)C2=[Se])cc1 [Compound 22, 5-(4-((2-(2-hydroxyethoxy)ethyl)amino)benzylidene)-1-methyl-2-selenoxo-3-(4-tolyl)imidazoline-4-on]",IC50,[1],2.3 µM
same,bioavailability,in vivo,55%
"CCc1ccc(N2C(=O)/C(=C\c3cc(O)cc(O)c3)N(C)C2=[Se])cc1 [Compound 27, 5-(3,5-dihydroxybenzylidene)-3-(4-ethylphenyl)-1-methyl-2-selenoxoimidazolidine-4-on]",IC50,[1],9 µM
same,bioavailability,in vivo,31%
CN1C(=[Se])N(CCc2ccccc2)C(=O)/C1=C\c1cc(O)cc(O)c1 [Compound 44],IC50,[1],1 µM
same,bioavailability,in vivo,73%
"CCCCCCN1C(=O)/C(=C\c2ccc(O)cc2O)N(C)C1=[Se] [Compound 59, 5-(2,4-dihydroxybenzylidene)-3-hexyl-1-methyl-2-selenoxoimidazolidine-4-on]",IC50,[1],0.68 µM
same,bioavailability,in vivo,23%
CCc1ccc(N2C(=O)C(=Cc3cc(O)cc(O)c3)N(C)C2=[Se])cc1 [lace],reduction of time for mice to reach the home cage compared to MPTP administration group,MPTP-administered mice; [4],≥ 50%
same,cell viability / inhibition of cell death,SH-SY5Y cell line,significantly inhibit cell death
same,"survival rate of substantia nigra dopaminergic neurons, of that in the control group","[3]; Evaluation 1: 5 mg/kg for 7 days, MPTP 15 mg/kg x 4, 7 further days",79.6%
